Residues, ends and D or L forms follow the SMILES beside them. *: point of attachment. NHOH = ON*
Columns and labels:
[1] = target: T1, catalytic domain (Met80-Gly242) of human neutrophil collagenase (Homo sapiens, UniProt P22894); test: Enzyme assay: inhibition of cleavage of a fluorogenic substrate by the HNC catalytic domain; assay type: biochemical; settings: HNC (MMP-8) catalytic domain, 25° C., substrate DNP-Pro-Leu-Gly-Leu-Trp-Ala-D-Arg-NH2
T1 construct: 8 nM catalytic domain (Met80-Gly242) of human neutrophil collagenase; made in house; host or cells: E. coli
Method: In order to determine the inhibition of MMPs, for example HNC, the catalytic domain (isolation and purification see example 1) is incubated with inhibitors having various concentrations. Subsequently, the initial reaction rate in the conversion of a standard substrate is measured in a manner analogous to F. Grams et al. (1993)^51.
The results are evaluated by plotting the reciprocal reaction rate against the concentration of the inhibitor. The inhibition constant (Ki) is obtained as the negative section of the abscissis by the graphical method according to M. Dixon (1953)^28.
The synthetic collagenase substrate is a heptapeptide which is coupled, at the […], with DNP (dinitrophenol). Said DNP residue quenches by steric hindrance the fluorescence of the adjacent tryptophane of the heptapeptide. After cleavage of a tripeptide which includes the DNP group, the tryptophane fluorescence increases. The proteolytic cleavage of the substrate therefore can be measured by the fluorescence value.
The assay was performed at 25° C. in a freshly prepared 50 mM Tris buffer (pH 8.0) treated with dithiozone to remove traces of heavy metals. 4 mM CaCl2 was added and the buffer saturated wtih argon. Stock solutions of adamalysin II were prepared by centrifugation of the protein from an ammonium sulfate suspension and subsequent dissolution in the assay buffer Stock solutions of collagenase were diluted with the assay buffer. Enzyme concentrations were determined by uv measurements (ε280=2.8·10^4 M^−1 cm^−1, ε288·2.2 10^4 M^−1 cm^−1) and the stock solutions were stored in the cold. This solution was diluted 1 100 to obtain the final 16 nM assay concentration. The fluorogenic substrate DNP-ProLeu-Gly-Leu-Trp-Ala-D-Arg-NH2 with a Km of 52 μM was used at a concentration of 21.4 μM, for the Ki determination a 12.8 μM concentration has also been used. Substrate fluorescence was measured at an excitation and emission wavelength of λ=[…], respectively, on a spectrofluorimeter (Perkin Elmer, Model 650-40) equipped with a thermostated cell holder. Substrate hydrolysis was monitored for 10 min. immediately after adding the enzyme. All reactions were performed at least in triplicate. The Ki values of the inhibitors were calculated from the intersection point of the straight lines obtained by the plots of vo/vi vs. [concentration of inhibitor], whereas IC50 values were calculated from plots of vi/vo [concentration of inhibitor] by non-linear regression with simple robust weighting.
50 mM Tris/HCl pH 7.6 (Tris=Tris-(hydroxymethyl)-aminomethan)
8 nM catalytic domain (Met80-Gly242) of human neutrophil collagenase
10 microM DNP-Pro-Leu-Gly-Leu-Trp-Ala-D-Arg-NH2
A solution of the enzyme and inhibitor in assay buffer (25° C.) was prepared. The reaction was started directly by giving the substrate into the solution. The cleavage of the flourogenic substrate was followed by flourescence spectroscopy with an excitation and emision wavelength of 280 and 350 nm, respectively. The IC50 value was calculated as the inhibitor concentration, which is necessary to decrease the velocity of the reaction to the half in comparison to the reaction without inhibitor.

[2] = tested on: MMPs; test: Inhibition of MMPs; assay type: biochemical
[3] = target: collagenase (Homo sapiens, UniProt P22894); test: Affinity for collagenase (statement in text, HNC complex); assay type: binding
Chain of collagenase (P22894 101-467): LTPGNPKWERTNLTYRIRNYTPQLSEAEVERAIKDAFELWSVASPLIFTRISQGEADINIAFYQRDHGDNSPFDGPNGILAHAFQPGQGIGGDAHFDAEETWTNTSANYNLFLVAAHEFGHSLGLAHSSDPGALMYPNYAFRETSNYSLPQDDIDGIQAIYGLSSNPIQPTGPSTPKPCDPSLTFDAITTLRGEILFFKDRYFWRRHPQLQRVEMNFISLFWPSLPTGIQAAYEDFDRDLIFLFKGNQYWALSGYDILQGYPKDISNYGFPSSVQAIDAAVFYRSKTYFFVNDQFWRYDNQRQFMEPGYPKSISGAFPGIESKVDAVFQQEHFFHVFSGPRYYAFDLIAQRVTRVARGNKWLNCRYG

T1 sequence (P22894 100-262): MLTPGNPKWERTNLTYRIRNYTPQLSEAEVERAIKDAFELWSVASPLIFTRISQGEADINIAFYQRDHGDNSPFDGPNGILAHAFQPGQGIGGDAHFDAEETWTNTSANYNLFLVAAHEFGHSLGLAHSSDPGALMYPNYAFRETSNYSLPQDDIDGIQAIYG

IC50 [1] [µM]	SMILES	inhibition of MMPs (in words) [2]	affinity for collagenase (in words) [3]
58	CC(C)CC(C(=O)NO)C(=O)NC(C)C(=O)NCc1ccccc1 (mixture of isomers) [ER014, HONH-iBM-Ala-NHBn]		
63	CC(C)CC(C(=O)NO)C(=O)NC(CC(N)=O)C(=O)NCc1ccccc1 (mixture of isomers) [ER017, HONH-iBM-Asn-NHBn]		
40	CC(C)CC(C(=O)NO)C(=O)NC(CO)C(=O)NCc1ccccc1 (mixture of isomers) [ER028, HONH-iBM-Ser-NHBn]		
30	CC(C)CC(C(=O)NO)C(=O)NC(CC(N)=O)C(=O)NCc1cccc(N)c1 (mixture of isomers) [ER031, HONH-iBM-Asn-NHBn(m-NH2)]		
61	CC(C)CC(C(=O)NO)C(=O)NC(CO)C(=O)NCC(=O)NCc1ccccc1 (mixture of isomers) [ER059, HONH-iBM-Ser-Gly-NHBn]		
1.6	Cc1ccc(CCNC(=O)C(CCc2ccccc2)NC(=O)C(CC(C)C)C(=O)NO)cc1 (mixture of isomers) [ER070, HONH-iBM-Homophe-NHCH2CH2Ph(p-Me)]		
29	CC(C)CC(C(=O)NO)C(=O)NC(Cc1ccccc1)C(=O)NCc1ccccc1 (mixture of isomers) [ER074, HONH-iBM-Phe-NHBn]		
139	CC(C)CC(C(=O)NO)C(=O)N[C@@H](C)C(=O)NCC(N)=O (stereo partly drawn) [ER029, HONH-2-isobutylmalonyl-L-alanyl glycinamide, reference compound]	very poorly	
	CC(C)C[C@H](NC(=O)[C@@H]1CCCN1)C(=O)NCC(=O)NO [PLG-NHOH, L-prolyl-L-leucyl-glycin-hydroxamate] (H-Pro-Leu-Gly-{NHOH})		relatively weak

Reference: patent US20020049185A1, “Malonic acid based matrix metalloproteinase inhibitors” (ROCHE DIAGNOSTICS GMBH, priority 1994, published 2002)
